Experimental data taken from US20180071317A1, “USE OF AGENTS THAT ALTER THE PERITUMORAL ENVIRONMENT FOR THE TREATMENT OF CANCER” (SERVICIO ANDALUZ DE SALUD, priority 2011, published 2018).

Assays:
polymorphonuclear cells = assay: Marker expression (immunohistochemistry) in polymorphonuclear blood cells with SP alone or with NK1 antagonists; assay type: cell-based, human; conditions: SP 1 μM + antagonist 1 μM; 48 h
Excerpt: Briefly, heparinized blood from healthy donors was centrifuged so as to separate the various components thereof. Red blood cells remained at the bottom of the tube. Above them was a small white layer composed of the white blood cells and above, on top of the tube, the blood plasma. The layer of white cells was distributed in a culture plate of 24 wells by adding in each the same concentration of blood plasma from the same donor, supplemented with 1% antibiotic-antimycotic (Invitrogen). In each well, approximately 1000 cells (PHF) skin from the dermis were further added, obtained as previously described in Example 2. […] After 48 hours of incubation, cells were collected and embedded in paraffin for expression analysis by immunohistochemical techniques (as described in Example 1).
The expression of TGF molecular markers (anti-TGF 2, SAB4502956) and NF-kB (anti-NF-kB, SAB4501992) using specific antibodies against them were analyzed. All antibodies used were rabbit polyclonal antibodies obtained from Sigma Aldrich and were used at a concentration of 1/1000. All experiments were carried out sixfold.

[1] = system: fibroblasts (PHF) co-cultured with tumor cells of human gastric adenocarcinoma (23132/87); assay: Marker expression (IHC) in PHF co-cultured with 23132/87 tumor cells; assay type: cell-based; conditions: co-culture with 23132/87; SP 1 μM + antagonist 1 μM; 48 h;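 also: cultures grown in fresh plasma from a healthy human donor, values give the percentage of PHF fibroblasts positive for the marker, each experiment run in six replicates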
Experimental: All cultures were maintained 48 hours, following which the same cells were included in paraffin blocks for subsequent analysis of the expression of different markers by immunohistochemistry (see Example 1). The primary antibodies used to perform immunohistochemical assays and their concentration are detailed in Example 2. All experiments were carried out sixfold. Analyzed markers in fibroblast cells (stromal cells) were: TGF-α, TGF-β1, TGF-β2, TGF-β3, SPARC, MMP-3, MMP-7, MMP-9, MMP-11, MMP-13 and MMP-14.

[2] = system: fibroblasts (PHF) co-cultured with human choriocarcinoma tumor cells (AC-1M32); assay: Marker expression (IHC) in PHF co-cultured with AC-1M32 tumor cells; assay type: cell-based; conditions: co-culture with AC-1M32; SP 1 μM + antagonist 1 μM; 48 h;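 also: Read-out is the percentage of PHF fibroblasts positive for each marker, with cells grown in fresh healthy-donor blood plasma, six replicates, reference being fibroblasts cultured alone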
Experimental: (§1) All cultures were maintained 48 hours, following which the same cells were included in paraffin blocks for subsequent analysis of the expression of different markers by immunohistochemistry (see Example 1). […] All experiments were carried out sixfold. Analyzed markers in fibroblast cells (stromal cells) were: TGF-α, TGF-β1, TGF-β2, TGF-β3, SPARC, MMP-3, MMP-7, MMP-9, MMP-11, MMP-13 and MMP-14.

[3] = system: fibroblasts (PHF) co-cultivated with tumor cell carcinoma of urinary bladder (5637); assay: Marker expression (IHC) in PHF co-cultured with 5637 tumor cells; assay type: cell-based, human; conditions: co-culture with 5637; SP 1 μM + antagonist 1 μM; 48 h
Experimental: as §1

[4] = system: fibroblasts (PHF) co-cultured with human neuroblastoma tumor cells (KELLY); assay: Marker expression (IHC) in PHF co-cultured with KELLY tumor cells; assay type: cell-based; conditions: PHF co-cultured with KELLY + SP + NK1 antagonist;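 also: Co-cultures grown on healthy-donor human blood plasma, run in six replicates, value is percentage of fibroblasts positive for each marker, compared with fibroblasts cultured alone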
Experimental: as §1

[5] = system: fibroblasts of tumors produced by human rhabdomyosarcoma tumor line (A-204); assay: Marker expression (IHC) in fibroblasts of tumor or peritumoral area, mouse model, A-204; assay type: in vivo; conditions: A-204 tumors in mice, 30 mg/kg/day oral, 7 days
Experimental: In vitro tests conducted in Example 5 are now carried out in an experimental model in mice in vivo. […] Subsequently, the expression in fibroblasts tumoral and peritumoral area of molecular markers associated with progression and maintenance of tumors: TGF-α, TGF-β1, TGF-β2, TGF-β3, MMP-7, MMP-11, MMP-14 were analyzed by immunohistochemistry.
Were injected with 2×10^7 cells tumors (corresponding, in each case to each of the tumor types as specified in Table 9) in 200 of PBS subcutaneously μl. […] Mice were randomized into two groups when the tumors reached a volume of 75 mm^3 One group was treated with non-peptide receptor antagonists NK1 and the other with placebo 200μ1. […] Tumors and samples of non-neoplastic stromal areas remote from the tumor were halved, formalin fixed (4%) and then were included in paraffin blocks for analysis by immunohistochemistry.
The expression on fibroblast cells obtained in the animal model was analyzed by immunohistochemistry, of the above markers: TGF-α, TGF-β1, TGF-β2, TGF-β3, MMP-7, MMP-1 1, MMP-14MP-14. Tables 32 to 35 depict the type of label used and the average percentage of fibroblasts present in non-tumor areas, tumor and peritumoral (±SD) which were expressing the marker shown in each of the tumor types developed from of the different cell lines used. This process was realized in mice treated with non-peptide antagonists of NK1 receptor and in untreated animals (control).

CC(=O)N1CCN([C@H]2CCN(C(=O)N(C)[C@H](C)c3cc(C(F)(F)F)cc(C(F)(F)F)c3)[C@@H](c3ccc(F)cc3C)C2)CC1 [Casopitant]
0%: polymorphonuclear cells expressing NF-kB (polymorphonuclear cells) | polymorphonuclear cells expressing TGF-β (polymorphonuclear cells) | PHF cells expressing MMP-3 [1] | PHF cells expressing MMP-7 [1] | PHF cells expressing MMP-9 [1] | PHF cells expressing MMP-11 [1] | PHF cells expressing MMP-13 [1] | PHF cells expressing MMP-14 [1] | PHF cells expressing SPARC [1] | PHF cells expressing TGF-α [1] | PHF cells expressing TGF-β1 [1] | PHF cells expressing TGF-β2 [1] | PHF cells expressing TGF-β3 [1] | PHF cells expressing MMP-3 [2] | PHF cells expressing MMP-7 [2] | PHF cells expressing MMP-9 [2] | PHF cells expressing MMP-11 [2] | PHF cells expressing MMP-13 [2] | PHF cells expressing MMP-14 [2] | PHF cells expressing SPARC [2] | PHF cells expressing TGF-α [2] | PHF cells expressing TGF-β1 [2] | PHF cells expressing TGF-β2 [2] | PHF cells expressing TGF-β3 [2] | PHF cells expressing MMP-3 [3] | PHF cells expressing MMP-7 [3] | PHF cells expressing MMP-9 [3] | PHF cells expressing MMP-11 [3] | PHF cells expressing MMP-13 [3] | PHF cells expressing MMP-14 [3] | PHF cells expressing SPARC [3] | PHF cells expressing TGF-α [3] | PHF cells expressing TGF-β1 [3] | PHF cells expressing TGF-β2 [3] | PHF cells expressing TGF-β3 [3] | cells expressing MMP-3 [4] | cells expressing MMP-7 [4] | cells expressing MMP-9 [4] | cells expressing MMP-11 [4] | cells expressing MMP-13 [4] | cells expressing MMP-14 [4] | cells expressing SPARC [4] | cells expressing TGF-α [4] | cells expressing TGF-β1 [4] | cells expressing TGF-β2 [4] | cells expressing TGF-β3 [4] | fibroblasts expressing MMP-7 [5] | fibroblasts expressing MMP-11 [5] | fibroblasts expressing MMP-14 [5] | fibroblasts expressing TGF-α [5] | fibroblasts expressing TGF-β 1 [5] | fibroblasts expressing TGF-β 2 [5] | fibroblasts expressing TGF-β 3 [5]
